# Test results reported in patent US7320984B2, “Remedies or preventives for urinary frequency or urinary incontinence and morphinan derivatives having nitrogen-containing heterocyclic group” (Toray Industries, Inc., priority 2002, dated 2008).
# Tested on: rhythmic bladder contractions in rats
# Assay: Inhibitory effect against rhythmic bladder contractions in rats
# Assay type: in vivo
# Details: anesthetized female SD rats, intravenous, dose 0.003 mg/kg body weight
# Experimental: Inhibitory Effect Against Rhythmic Bladder Contractions in Rats
# Female SD rats were anesthetized with an intraperitoneal administration of urethane (1.0 g/kg). A polyethylene tube was inserted from the urethra to the bladder and the tube was fixed by ligation. Then physiological saline was appropriately infused (infusion rate: about 0.2 ml/min., maximum: about 1.5 ml/animal) through the tube to cause rhythmic bladder contractions. The rhythmic bladder contractions were monitored by measuring the intravesical pressure through a polyethylene tube inserted into the bladder. After confirming that stable rhythmic bladder contractions occurred at least 10 times, a vehicle containing a prescribed dose of a test compound was intravenously administration at a dose of 1 ml/kg. In cases where the intravesical pressure, within 10 minutes after the administration of the test compound, decreased to 50% or less of the intravesical pressure immediately […] the administration, the test compound was judged as having inhibitory effect against urinary bladder contractions, and the time period until the intravesical pressure returned to more than 50% was defined as inhibitory time of rhythmic bladder contractions. As the vehicle for administration, physiological saline was used for test compounds 4, 7, 8, 9, 10, 13, 29, 30, 31, 33, 34, 75, 76, 79, 80, 81, 82, 84, 89, 90, 91, 93, 94, 95, 110 and 111, aqueous 10% dimethylsulfoxide (DMSO) solution was used for test compounds 11, 12, 14, 15, 16, 17, 18, 20, 21, 23, 28, 46, 47, 50, 55, 56, 57, 58, 59, 60, 61, 62, 63, 64, 65, 66, 68, 69, 70, 71, 72, 73, 74, 77, 78, 83, 85, 86, 87, 88, 92, 96, 97, 98, 99, 100, […], 103, 104, 105, 106, 107, 108 and […], aqueous 20% dimethylsulfoxide (DMSO) solution was used for test compounds 1, 2, 67 and 101, and aqueous 5% xylitol solution was used for test compounds 5 and 35. The aqueous 10% DMSO solution, aqueous 20% DMSO solution and the aqueous 5% xylitol solution per se, which may influence on the inhibitory time of rhythmic bladder contractions, were also tested at a dose of 1 ml/kg. With any of the compounds, prolongation of the inhibitory time of rhythmic bladder contractions was observed when compared with that obtained in the group to which the vehicle alone was administered.
row,Structure (SMILES),Mean Inhibitory Time of Rhythmic Bladder Contractions [min]
1,"O=C1c2cccc(F)c2C(=O)N1[C@H]1CC[C@@]2(O)[C@H]3Cc4ccc(O)c5c4[C@@]2(CCN3CC2CC2)[C@H]1O5 [Compound 67, N-(17-cyclopropylmethyl-4,5α-epoxy-3,14-dihydroxymorphinan-6α-yl)-3-fluorophthalimide]",27.3

# Same assay, conditions: anesthetized female SD rats, intravenous, dose 0.005 mg/kg body weight
row,Structure (SMILES),Mean Inhibitory Time of Rhythmic Bladder Contractions [min]
1,"O=C1c2ccc(F)cc2C(=O)N1[C@@H]1CC[C@@]2(O)[C@H]3Cc4ccc(O)c5c4[C@@]2(CCN3CC2CC2)[C@H]1O5 [Compound 16, N-(17-cyclopropylmethyl-4,5α-epoxy-3,14-dihydroxy-morphinan-6β-yl)-4-fluorophthalimide]",14.8
2,"O=C1c2ccccc2C(=O)N1[C@@H]1CC[C@@]2(O)[C@H]3Cc4ccc(O)c5c4[C@@]2(CCN3CC2CC2)[C@H]1O5 [Compound 11, N-(17-cyclopropylmethyl-4,5α-epoxy-3,14-dihydroxy-morphinan-6β-yl)-phthalimide]",15.5

# Same assay, conditions: anesthetized female SD rats, intravenous, dose 0.01 mg/kg body weight
row,Structure (SMILES),Mean Inhibitory Time of Rhythmic Bladder Contractions [min]
1,"C=CCN1CC[C@]23c4c5ccc(O)c4O[C@H]2[C@@H](N2C(=O)c4ccc(F)cc4C2=O)CC[C@@]3(O)[C@H]1C5 [Compound 65, N-(17-allyl-4,5α-epoxy-3,14-dihydroxymorphinan-6α-yl)-4-fluorophthalimide]",18.6
2,"O=C1C2=C(CCCC2)C(=O)N1[C@@H]1CC[C@@]2(O)[C@H]3Cc4ccc(O)c5c4[C@@]2(CCN3CC2CC2)[C@H]1O5 [Compound 77, N-(17-cyclopropylmethyl-4,5α-epoxy-3,14-dihydroxy-morphinan-6β-yl)-3,4,5,6-tetrahydrophthalimide]",16.6
3,"O=C1c2ccc(Cl)cc2C(=O)N1[C@@H]1CC[C@@]2(O)[C@H]3Cc4ccc(O)c5c4[C@@]2(CCN3CC2CC2)[C@H]1O5 [Compound 15, N-(17-cyclopropylmethyl-4,5α-epoxy-3,14-dihydroxy-morphinan-6β-yl)-4-chlorophthalimide]",12.2

# Same assay, conditions: anesthetized female SD rats, intravenous, dose 0.03 mg/kg body weight
row,Structure (SMILES),Mean Inhibitory Time of Rhythmic Bladder Contractions [min]
1,"C=CCN1CC[C@]23c4c5ccc(O)c4O[C@H]2[C@H](N2C(=O)C4=C(CCCC4)C2=O)CC[C@@]3(O)[C@H]1C5 [Compound 73, N-(17-allyl-4,5α-epoxy-3,14-dihydroxymorphinan-6β-yl)-3,4,5,6-tetrahydrophthalimide]",13.4
2,"C=CCN1CC[C@]23c4c5ccc(O)c4O[C@H]2[C@H](N2C(=O)c4cccc(C)c4C2=O)CC[C@@]3(O)[C@H]1C5 [Compound 60, N-(17-allyl-4,5α-epoxy-3,14-dihydroxymorphinan-6β-yl)-3-methylphthalimide]",19.7
3,"C=CCN1CC[C@]23c4c5ccc(O)c4O[C@H]2[C@H](N2C(=O)c4ccc(F)cc4C2=O)CC[C@@]3(O)[C@H]1C5 [Compound 58, N-(17-allyl-4,5α-epoxy-3,14-dihydroxymorphinan-6β-yl)-4-fluorophthalimide]",19.3

# Same assay, conditions: anesthetized female SD rats, intravenous, dose 0.1 mg/kg body weight
row,Structure (SMILES),Mean Inhibitory Time of Rhythmic Bladder Contractions [min]
1,"CN1CC[C@]23c4c5ccc(O)c4O[C@H]2[C@H](N2CCSc4ccccc42)CC[C@H]3[C@H]1C5 [Compound 2, 4,5α-epoxy-6β-(3,4-dihydro-2H-benzo[1,4]thiazino)-17-methyl-morphinan-3-ol]",15.5
2,"O=S1(=O)c2ccccc2CN1[C@@H]1CC[C@@]2(O)[C@H]3Cc4ccc(O)c5c4[C@@]2(CCN3CC2CC2)[C@H]1O5 [Compound 110, N-(17-cyclopropylmethyl-4,5α-epoxy-3,14-dihydroxy-morphinan-6β-yl)-2,3-dihydro-benzo[d]isothiazol-1,1-dioxide]",12.6
3,"C=CCN1CC[C@]23c4c5ccc(O)c4O[C@H]2[C@H](N2C(=O)c4ccccc4S2(=O)=O)CC[C@@]3(O)[C@H]1C5 [Compound 109, N-(17-allyl-4,5α-epoxy-3,14-dihydroxy-morphinan-6β-yl)-O-sulfonebenzimide]",18.1
4,"O=c1[nH]c2ccccc2c(=O)n1[C@@H]1CC[C@@]2(O)[C@H]3Cc4ccc(O)c5c4[C@@]2(CCN3CC2CC2)[C@H]1O5 [Compound 104, 3-(17-cyclopropylmethyl-4,5α-epoxy-3,14-dihydroxy-morphinan-6β-yl)-1H-quinazolin-2,4-dione]",13.5
5,"Oc1ccc2c3c1O[C@H]1[C@H](N4CCc5ccccc54)CC[C@@]4(O)[C@@H](C2)N(CCc2ccccc2)CC[C@]314 [Compound 5, 4,5α-epoxy-6β-indolino-17-phenethyl-morphinan-3,14-diol]",9.9
6,"O=C1[C@H]2CCCC[C@H]2C(=O)N1[C@@H]1CC[C@@]2(O)[C@H]3Cc4ccc(O)c5c4[C@@]2(CCN3CC2CC2)[C@H]1O5 [Compound 69, N-(17-cyclopropylmethyl-4,5α-epoxy-3,14-dihydroxymorphinan-6β-yl)-hexahydrophthalimide]",15.7
7,"COc1cccc2c1C(=O)N([C@@H]1CC[C@@]3(O)[C@H]4Cc5ccc(O)c6c5[C@@]3(CCN4CC3CC3)[C@H]1O6)C2=O [Compound 102, N-(17-cyclopropylmethyl-4,5α-epoxy-3,14-dihydroxy-morphinan-6β-yl)-3-methoxy-phthalimide]",15.6
8,"CN1CC[C@]23c4c5ccc(O)c4O[C@H]2[C@H](N2CCCc4ccccc42)CC[C@H]3[C@H]1C5 [Compound 1, 4,5α-epoxy-6β-tetrahydroquinolino-17-methyl-morphinan-3-ol]",11.7
9,"C=CCN1CC[C@]23c4c5ccc(O)c4O[C@H]2[C@H](N2C(=O)c4ccccc4C2=O)CC[C@@]3(OC(C)=O)[C@H]1C5 [Compound 92, N-(14-acetoxy-17-allyl-4,5α-epoxy-3-hydroxymorphinan-6β-yl)-phthalimide]",16.0
10,"C=CCN1CC[C@]23c4c5ccc(O)c4O[C@H]2[C@H](N2C(=O)c4cc(Cl)c(Cl)cc4C2=O)CC[C@@]3(O)[C@H]1C5 [Compound 59, N-(17-allyl-4,5α-epoxy-3,14-dihydroxymorphinan-6β-yl)-4,5-dichlorophthalimide]",6.1

# Same assay, conditions: anesthetized female SD rats, intravenous, dose 0.3 mg/kg body weight
row,Structure (SMILES),Mean Inhibitory Time of Rhythmic Bladder Contractions [min]
1,"CN1CC[C@]23c4c5ccc(O)c4O[C@H]2[C@H](N2CCOCc4ccccc42)CC[C@H]3[C@H]1C5 [Compound 10, 4,5α-epoxy-6β-(1,2,3,5-tetrahydro-benzo[e][1,4]oxazepino)-17-methyl-morphinan-3-ol]",7.8
2,"CCCN1CC[C@]23c4c5ccc(O)c4O[C@H]2[C@H](N2C(=O)c4cccc(N)c4C2=O)CC[C@@]3(O)[C@H]1C5 [Compound 101, N-(4,5α-epoxy-3,14-dihydroxy-17-propyl-morphinan-6β-yl)-3-amino-phthalimide]",15.1
3,"O=C1c2ccccc2CN1[C@@H]1CC[C@@]2(O)[C@H]3Cc4ccc(O)c5c4[C@@]2(CCN3CC2CC2)[C@H]1O5 [Compound 28, 2-(17-cyclopropylmethyl-4,5α-epoxy-3,14-dihydroxy-morphinan-6β-yl)-2,3-dihydro-isoisoindol-1-one]",19.6

# Same assay, conditions: anesthetized female SD rats, intravenous, dose 1.0 mg/kg body weight
row,Structure (SMILES),Mean Inhibitory Time of Rhythmic Bladder Contractions [min]
1,"O=C1c2ccccc2C(=O)N1[C@@H]1CC[C@@]2(O)[C@H]3Cc4ccc(O)c5c4[C@@]2(CCN3)[C@H]1O5 [Compound 14, N-(4,5α-epoxy-3,14-dihydroxy-morphinan-6β-yl)-phthalimide]",7.9
2,"O=C1CCCN1[C@H]1CC[C@@]2(O)[C@H]3Cc4ccc(O)c5c4[C@@]2(CCN3CC2CC2)[C@H]1O5 [Compound 34, 1-(17-cyclopropylmethyl-4,5α-epoxy-3,14-dihydroxy-morphinan-6α-yl)-pyrrolidin-2-one]",9.2
3,"O=C1C/C(=C\c2ccccc2)C(=O)N1[C@@H]1CC[C@@]2(O)[C@H]3Cc4ccc(O)c5c4[C@@]2(CCN3CC2CC2)[C@H]1O5 [Compound 21, N-(17-cyclopropylmethyl-4,5α-epoxy-3,14-dihydroxy-morphinan-6β-yl)-2-benzylidene-succinimide]",19.0
